How the values were obtained:
impulsivity in rat = assay: Effect of suppressing impulsivity in rat (T-maze delayed large reward, i.p.); format: in vivo; settings: 3 mg/kg, total 50 trials of 5 days, versus vehicle control group
Excerpt: Test Example 3-1: Effect of Suppressing Impulsivity in Rat
Male Crl: WI rats were obtained at post-natal day 14 and weaning was occurred at post-natal day 21. Starting from then, the rats were housed 2-3 per cage and food-restricted (Day 1). The feeding amount was 5 g/day at post-natal day 21-28 (Day 1-8), 8.5 g/day at post-natal day 29-32 (Day 9-12), and 10 g/day at post-natal day 33-36 (Day 13-16), preventing their body weight from being 60% or less of the weight of the free feeding rats.
4 days after the beginning of the food restriction (Day 5), pellets were put on goal boxes located in the left-side and the right-side of T-maze. Then, the rats were allowed to freely explore the T-maze-box for 5 min to get habituated to the T-maze box and learn that the pellets were put on the goal boxes located in the left-side and the right-side. For 4 consecutive days from the next day (Day 6-9), one pellet (20 mg×1) was put in one side of the goal box as a small reward, and 5 pellets (20 mg×5) were put in the other side of the goal box as a large reward, and the rats were trained to learn their positions. Each rat underwent 10-trial per day trainings. […] The evaluations of the drug efficacy were started on Day 12. […]

[1] = molecular target: human recombinant dopamine D2 receptor (Homo sapiens (Human), UniProt P14416); assay: Test of binding inhibition for the human dopamine D2 receptor (SPA, [3H]-Metylspiperone); settings: Jump-In HEK cell membranes, 1.2 nM [3H]-Metylspiperone, 120 min at 25° C.; read-out: hD2_Ki
Experimental: Test Example 1: Test of Binding Inhibition for the Human Dopamine D2 Receptor
Cell membranes: Jump-In HEK cell membranes expressing human recombinant dopamine D2 receptor (2 μg/well)
Buffer solution: 50 mM Tris-HCl (35409-45, Nacalai Tesque) (pH 7.4) containing 120 mM NaCl (31320-05, Nacalai Tesque), 1 mM MgCl2.6H2O (20909-55, Nacalai Tesque). 5 mM KCl (28514-75, Nacalai Tesque) and 2 mM CaCl2 (067-31, Nacalai Chemical, Ltd)
Radioligand: (final concentration) 1.2 nM [^3H]-Metylspiperone ([^3H—N-methyl-]-Metylspiperone, NET-856, 83.8 Ci/mmol, PerkinElmer)
(§1) Non-specific ligand: (final concentration) 10 μM Butaclamol [(+)-Butaclamol Hydrochloride, D033, Sigma]
(§2) SPA beads: SPA beads [WGA PVT SPA Scintillation Beads, RPNQ0001 (500 mg), RPNQ0060 (2 g), PerkinElmer] (0.2 mg/well)
(§3) Incubation time and temperature: 120 min at 25° C.
(§4) Butaclamol or the compounds of the present invention were weighed and DMSO was added to make a 10 mM solution. This solution was diluted to each concentration.
[^3H]-Metylspiperone was weighed and the buffer solution was added to make a 3.6 nM solution.
SPA beads were weighed and stirred in water to moke a 50 mg/mL solution. Using this solution, a mixed solution with the cell membranes was prepared.
225 nL of the solutions of the non-specific ligand or the compounds of the present invention at each concentration (in case of vehicle, final concentration 0.3% DMSO) were added in each well of a 384-well white/clear bottom microplate (3706, Corning). Jump-In HEK Cell membranes (final reaction amount: 2 μg protein/well), SPA beads (final reaction amount: 0.2 mg/well) and the buffer were mixed and the mixed solution was left still for more than or equal to 1 h at 4° C. Then, 50 μL of the mixture was added to each well of the plate. In addition, 25 μL of 3.6 nM [^3H]-Metylspiperone (final concentration: 1.2 nM) was added to each well. The plate was sealed by putting TopSeal-A 96/384 well (6050185, PerkinElmer) on the top of the plate, mixed using stirring deaerator (Welltornado, FK-62, Sakaki) and incubated for 120 min at 25° C. After incubation, the radioactivity of [^3H]-Metylspiperone which was binded to D2 receptor was determined by liquid scintillation counter (1450 Microbeta, PerkinElmer) in each well. Non-specific binding was calculated based on the radioactivity of [^3H]-Metylspiperone in the presence of 10 μM non-labeled Butaclamol. The total binding was calculated using the radioactivity of [^3H]-Metylspiperone in the absence of the compounds of the present invention (Vehicle). The Ki values were calculated from dose-response curves.
Binding activities of the compounds of the present invention were calculated from the following Binding Inhibition Rate (%): Inhibition Rate (%)=[1−(c−a)(b−a)]×100(%) • a: Average cpm of non-specific binding • b: Average cpm of total binding • c: Cpm in the presence of each test compound

[2] = molecular target: human recombinant dopamine D3 receptor (Homo sapiens (Human), UniProt P35462); assay: Test of binding inhibition for the human dopamine D3 receptor (SPA, [3H]-Metylspiperone); settings: Jump-In HEK cell membranes, 2 nM [3H]-Metylspiperone, 120 min at 25° C.; read-out: hD3_Ki
Experimental: Cell membranes: Jump-In HEK cell membranes expressing human recombinant dopamine D3 receptor (4 μg/well)
as §1, §2, §3, §4
[^3H]-Metylspiperone was weighed and the buffer solution was added to make a 6 nM solution.
SPA beads were weighed and stirred in water to make a 50 mg/mL solution. Using this solution, a mixed solution with the cell membranes was prepared.
Jump-In HEK Cell membranes (final reaction amount: 4 μg/well), SPA beads (final reaction amount: 0.2 mg/well) and Tris-HCl buffer were mixed and the mixed solution was left still for more than 60 min at 4° C. Then, 50 μL of the mixture was added to each well of the plate. In addition, 25 μL of 6 nM [^3H]-Metylspiperone (final concentration: 2 nM) was added to each well. […] Non-specific binding was calculated based on the radioactivity of [^3II]-Metylspiperone in the presence of 10 μM non-labeled Butaclamol. The total binding was calculated based on the radioactivity of [^3H]-Metylspiperone in the absence of the compounds of the present invention (Vehicle). The Ki values were calculated from dose-response curves.
Binding activities of the compounds of the present invention were calculated from the following Binding Inhibition Rate (%): Inhibition Rate (%)=[1−(c−a)(b−a)]*100(%) • a: Average cpm of non-specific binding • b: Average cpm of total binding • c: Cpm in the presence of each test compound

human recombinant dopamine D3 receptor, sequence (P35462 whole entry): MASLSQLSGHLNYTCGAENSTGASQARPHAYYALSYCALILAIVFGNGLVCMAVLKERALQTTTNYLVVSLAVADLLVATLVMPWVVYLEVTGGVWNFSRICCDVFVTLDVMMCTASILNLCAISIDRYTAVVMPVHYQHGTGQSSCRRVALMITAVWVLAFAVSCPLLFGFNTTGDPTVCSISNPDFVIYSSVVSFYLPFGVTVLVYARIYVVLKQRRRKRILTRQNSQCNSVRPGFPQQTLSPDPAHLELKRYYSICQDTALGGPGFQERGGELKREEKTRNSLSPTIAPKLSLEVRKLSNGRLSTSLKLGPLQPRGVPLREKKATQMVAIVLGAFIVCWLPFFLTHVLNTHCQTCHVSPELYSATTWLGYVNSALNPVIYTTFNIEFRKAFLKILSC
human recombinant dopamine D2 receptor, sequence (P14416 whole entry): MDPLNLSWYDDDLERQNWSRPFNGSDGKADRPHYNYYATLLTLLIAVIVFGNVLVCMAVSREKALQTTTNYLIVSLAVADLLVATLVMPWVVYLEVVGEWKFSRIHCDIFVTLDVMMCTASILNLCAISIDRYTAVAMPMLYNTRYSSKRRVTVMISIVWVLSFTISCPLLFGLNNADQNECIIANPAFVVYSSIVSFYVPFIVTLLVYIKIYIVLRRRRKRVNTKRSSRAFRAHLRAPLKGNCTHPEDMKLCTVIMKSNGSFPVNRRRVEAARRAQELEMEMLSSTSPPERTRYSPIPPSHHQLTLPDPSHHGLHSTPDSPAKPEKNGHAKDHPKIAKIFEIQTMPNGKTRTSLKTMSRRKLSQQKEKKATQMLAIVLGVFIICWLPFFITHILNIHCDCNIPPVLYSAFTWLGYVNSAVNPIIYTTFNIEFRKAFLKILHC

Row | SMILES | number of choices for the large reward (impulsivity in rat) | Ki [1] [nM] | Ki [2] [nM]
1 | O=C(N[C@H]1CC[C@H](CCN2CCc3sc(OCC(F)F)nc3C2)CC1)c1cccc2ncccc12 [Compound I-085] | significantly increased | – | –
2 | Cc1cc(CC(=O)N[C@H]2CC[C@H](CCN3CCc4sc(N5CC(F)(F)C5)nc4C3)CC2)on1 [Compound I-098] | – | 1600 | 0.12
3 | COc1cc(CCC(=O)N[C@H]2CC[C@H](CCN3CCc4ccc(OCC(F)F)nc4CC3)CC2)on1 [II-041] | – | 290 | 0.058
4 | Cc1cn2c(C(=O)N[C@H]3CC[C@H](CCN4CCc5ccc(OCC(F)F)nc5CC4)CC3)cccc2n1 [II-057] | – | > 1700 | 0.014
5 | Cc1ncc(CC(=O)N[C@H]2CC[C@H](CCN3CCc4cnc(OCC(F)F)nc4CC3)CC2)s1 [II-062] | – | > 1700 | 1.1
6 | Cc1ncc(CC(=O)N[C@H]2CC[C@H](CCN3CCc4cc(C)c(OCC(F)F)nc4CC3)CC2)s1 [III-008] | – | 480 | 0.25

— patent US11345716B2, “Nitrogen-containing condensed ring compounds having dopamine D3 antagonistic effect” (Shionogi & Co., Ltd., priority 2016, dated 2022)
